Source: ChEMBL document CHEMBL3870360, “GluN2A-Selective Pyridopyrimidinone Series of NMDAR Positive Allosteric Modulators with an Improved in Vivo Profile” (ACS Med Chem Lett, 2017)
pEC50: −log10 of the molar value. ≈ marks a conversion by molar mass, not a printed value.

Columns and labels:
MDR1 (human) = assay: Efflux ratio of permeability from basolateral to apical over apical to basolateral side in MDCK cells expressing human MDR1; assay type: ADME, cell-based, Canis lupus familiaris; conditions: dog
[1] = molecular target: T1, Glutamate NMDA receptor; GRIN1/GRIN2A (Homo sapiens, UniProt Q05586+Q12879); assay: Positive allosteric modulation of GluN1/GluN2A receptor (unknown origin) expressed in CHO cells assessed as increase in glutamate-induced calcium flux at 125 uM measured at time interval of 5 mins in presence of saturating glycine by calcium dye-based fluorescence assay relative to glutamate; assay type: cell-based
Glutamate receptor 2 [2] = molecular target: T2, Glutamate receptor 2 (Homo sapiens, UniProt P42262); assay: Positive allosteric modulation of human GluA2 receptor flip isoform assessed as increase in glutamate-induced calcium flux at 125 uM measured at time interval of 5 mins in presence of saturating glycine by calcium dye-based fluorescence assay relative to glutamate; assay type: single protein
[3] = molecular target: T1, Glutamate NMDA receptor; GRIN1/GRIN2A; assay: Positive allosteric modulation of GluN1/GluN2A receptor (unknown origin) expressed in CHO cells assessed as increase in glutamate-induced calcium flux measured at time interval of 5 mins in presence of saturating glycine by calcium dye-based fluorescence assay; assay type: cell-based
Glutamate receptor 2 [4] = molecular target: T2, Glutamate receptor 2; assay: Positive allosteric modulation of human GluA2 receptor flop isoform assessed as increase in glutamate-induced calcium flux at 125 uM measured at time interval of 5 mins in presence of saturating glycine by calcium dye-based fluorescence assay relative to glutamate; assay type: Functional, single protein
[5] = molecular target: Ionotropic glutamate receptor NMDA 1/2C (Homo sapiens, UniProt Q05586+Q14957); assay: Positive allosteric modulation of GluN1/GluN2C receptor (unknown origin) assessed as increase in glutamate-induced calcium flux measured at time interval of 5 mins in presence of saturating glycine by calcium dye-based fluorescence assay
[6] = Drug uptake in mouse brain; assay type: ADME, tissue-based; conditions: in vivo
[7] = Activity at AMPA receptor in mouse hippocampal brain slices assessed as electrical stimulation-induced excitatory post synaptic potential at -70 mV holding potential by electrophysiology method; assay type: ADME
[8] = Clearance in mouse blood at 0.5 mg/kg, iv; assay type: ADME, organism-based
[9] = Lipophilicity, log D of the compound; assay type: physicochemical; conditions: octanol/water
[10] = Volume of distribution at steady state in mouse at 0.5 mg/kg, iv; assay type: ADME, organism-based; conditions: in vivo, read-out: Vdss
[11] = Ratio of unbound concentration in brain to plasma in mouse at 5 mg/kg, po at 1 hr; assay type: ADME, organism-based; conditions: brain and plasma, read-out: K(p,uu,brain)
[12] = Selectivity ratio of EC50 for human GluA2 flip isoform receptor to EC50 for GluN1/GluN2A receptor (unknown origin) expressed in CHO cells; assay type: ADME, cell-based
[13] = molecular target: Glutamate NMDA receptor; GRIN1/GRIN2B (Homo sapiens, UniProt Q05586+Q13224); assay: Positive allosteric modulation of GluN1/GluN2B receptor (unknown origin) expressed in HEK293 cells assessed as increase in glutamate-induced calcium flux at 125 uM measured at time interval of 5 mins in presence of saturating glycine by calcium dye-based fluorescence assay relative to glutamate; assay type: ADME, cell-based
[14] = Oral bioavailability in mouse at 5 mg/kg; assay type: ADME, organism-based; conditions: in vivo
[15] = Half life in mouse at 0.5 mg/kg, iv; assay type: ADME, organism-based; conditions: in vivo
Glutamate receptor 2 [16] = molecular target: T2, Glutamate receptor 2; assay: Positive allosteric modulation of human GluA2 receptor flip isoform assessed as increase in glutamate-induced calcium flux measured at time interval of 5 mins in presence of saturating glycine by calcium dye-based fluorescence assay; assay type: Functional, single protein
[17] = molecular target: Ionotropic glutamate receptor NMDA 1/2D (Homo sapiens, UniProt O15399+Q05586); assay: Positive allosteric modulation of GluN1/GluN2D receptor (unknown origin) assessed as increase in glutamate-induced calcium flux measured at time interval of 5 mins in presence of saturating glycine by calcium dye-based fluorescence assay
[18] = Unbound Cmax in mouse at 5 mg/kg, po; assay type: ADME, organism-based; conditions: in vivo
[19] = Protein binding in human plasma; assay type: ADME, cell-free; conditions: read-out: PPB (converted)
[20] = Kinetic solubility of the compound; assay type: physicochemical; conditions: read-out: Kinetic_solubility
[21] = Unbound AUClast in mouse at 5 mg/kg, po; assay type: ADME, organism-based; conditions: in vivo
[22] = Unbound clearance in mouse blood at 0.5 mg/kg, iv; assay type: ADME, organism-based; conditions: in vivo
[23] = Selectivity ratio of EC50 for GluN1/GluN2B receptor (unknown origin) expressed in HEK293 cells to EC50 for GluN1/GluN2A receptor (unknown origin) expressed in CHO cells; assay type: cell-based; conditions: human
[24] = Ratio of fCmax in mouse at 5 mg/kg, po to EC50 for GluN2A receptor (unknown origin) expressed in CHO cells co-expressing GluN1 receptor
[25] = Selectivity ratio of EC50 for human GluA2 flop isoform receptor to EC50 for GluN1/GluN2A receptor (unknown origin) expressed in CHO cells; assay type: ADME, cell-based
Glutamate receptor 2 [26] = molecular target: T2, Glutamate receptor 2; assay: Positive allosteric modulation of human GluA2 receptor flop isoform assessed as increase in glutamate-induced calcium flux measured at time interval of 5 mins in presence of saturating glycine by calcium dye-based fluorescence assay; assay type: Functional, single protein
[27] = Protein binding in mouse plasma; assay type: ADME, cell-free; conditions: read-out: PPB (converted)
[28] = molecular target: T1, Glutamate NMDA receptor; GRIN1/GRIN2A; assay: Deactivation of GluN1/GluN2A receptor (unknown origin) expressed in CHO cells assessed as time constant for signal decay at 1 uM preincubated followed by glutamate addition in presence of saturating glycine measured after glutamate removal by electrophysiology method; assay type: cell-based

T2 sequence (P42262 whole entry, canonical isoform): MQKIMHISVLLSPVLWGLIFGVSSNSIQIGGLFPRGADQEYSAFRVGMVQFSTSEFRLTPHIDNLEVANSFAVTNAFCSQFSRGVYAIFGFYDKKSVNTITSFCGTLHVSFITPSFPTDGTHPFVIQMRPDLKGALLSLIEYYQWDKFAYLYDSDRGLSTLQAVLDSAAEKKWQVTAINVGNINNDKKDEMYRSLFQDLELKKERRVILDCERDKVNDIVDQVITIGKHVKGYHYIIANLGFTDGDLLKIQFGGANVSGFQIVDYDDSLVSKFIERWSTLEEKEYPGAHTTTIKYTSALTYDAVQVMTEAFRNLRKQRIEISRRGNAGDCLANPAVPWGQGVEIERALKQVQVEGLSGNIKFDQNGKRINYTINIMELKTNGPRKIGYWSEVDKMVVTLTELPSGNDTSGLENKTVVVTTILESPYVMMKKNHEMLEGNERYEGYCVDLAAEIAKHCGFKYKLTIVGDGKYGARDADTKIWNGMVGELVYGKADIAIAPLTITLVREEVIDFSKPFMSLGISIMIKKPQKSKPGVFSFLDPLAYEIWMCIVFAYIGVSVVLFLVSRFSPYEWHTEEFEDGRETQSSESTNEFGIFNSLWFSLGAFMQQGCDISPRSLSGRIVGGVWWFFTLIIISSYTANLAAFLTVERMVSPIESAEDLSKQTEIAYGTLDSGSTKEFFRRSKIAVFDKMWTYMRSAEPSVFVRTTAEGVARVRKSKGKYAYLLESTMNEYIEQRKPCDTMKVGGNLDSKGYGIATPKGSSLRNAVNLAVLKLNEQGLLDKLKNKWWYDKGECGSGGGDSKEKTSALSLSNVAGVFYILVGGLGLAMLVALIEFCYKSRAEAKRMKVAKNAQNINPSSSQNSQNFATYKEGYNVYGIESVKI
Chain of Ionotropic glutamate receptor NMDA 1/2D (O15399 whole entry, other chains not shown): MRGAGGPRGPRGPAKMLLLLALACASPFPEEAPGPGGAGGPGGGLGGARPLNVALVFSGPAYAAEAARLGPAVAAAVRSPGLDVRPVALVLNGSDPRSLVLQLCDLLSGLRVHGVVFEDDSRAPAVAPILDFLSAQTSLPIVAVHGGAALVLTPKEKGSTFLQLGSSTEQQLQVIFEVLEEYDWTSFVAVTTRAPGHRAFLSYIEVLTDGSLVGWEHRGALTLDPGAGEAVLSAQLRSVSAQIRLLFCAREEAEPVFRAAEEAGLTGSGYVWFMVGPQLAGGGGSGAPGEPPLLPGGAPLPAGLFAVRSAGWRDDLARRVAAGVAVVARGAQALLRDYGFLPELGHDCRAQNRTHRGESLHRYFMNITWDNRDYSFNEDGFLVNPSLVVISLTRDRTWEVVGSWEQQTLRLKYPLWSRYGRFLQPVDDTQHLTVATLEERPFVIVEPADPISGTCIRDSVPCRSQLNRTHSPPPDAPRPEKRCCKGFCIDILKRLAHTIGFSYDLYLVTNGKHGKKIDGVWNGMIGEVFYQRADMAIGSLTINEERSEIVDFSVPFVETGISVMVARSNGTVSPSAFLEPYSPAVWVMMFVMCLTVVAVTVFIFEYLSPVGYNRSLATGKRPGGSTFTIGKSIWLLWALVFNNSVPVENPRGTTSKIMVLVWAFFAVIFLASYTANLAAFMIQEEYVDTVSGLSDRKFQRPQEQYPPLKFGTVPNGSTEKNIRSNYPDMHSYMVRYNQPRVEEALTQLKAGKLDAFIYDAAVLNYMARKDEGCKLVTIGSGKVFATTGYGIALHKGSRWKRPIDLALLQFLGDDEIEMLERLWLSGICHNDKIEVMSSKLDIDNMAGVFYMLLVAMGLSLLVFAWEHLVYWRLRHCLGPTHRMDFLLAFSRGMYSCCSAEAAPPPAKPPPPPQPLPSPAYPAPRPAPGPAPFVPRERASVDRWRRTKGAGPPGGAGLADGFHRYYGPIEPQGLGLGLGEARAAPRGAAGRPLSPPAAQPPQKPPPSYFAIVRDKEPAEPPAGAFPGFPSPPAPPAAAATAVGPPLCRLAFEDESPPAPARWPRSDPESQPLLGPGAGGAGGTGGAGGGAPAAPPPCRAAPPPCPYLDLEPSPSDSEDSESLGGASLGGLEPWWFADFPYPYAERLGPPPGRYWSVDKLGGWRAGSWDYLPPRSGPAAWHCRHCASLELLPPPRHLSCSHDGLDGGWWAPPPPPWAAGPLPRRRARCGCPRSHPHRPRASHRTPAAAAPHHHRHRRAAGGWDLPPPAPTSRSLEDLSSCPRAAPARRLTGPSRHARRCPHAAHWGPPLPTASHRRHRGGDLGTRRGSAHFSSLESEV
Chain of Ionotropic glutamate receptor NMDA 1/2C (Q14957 whole entry, other chains not shown): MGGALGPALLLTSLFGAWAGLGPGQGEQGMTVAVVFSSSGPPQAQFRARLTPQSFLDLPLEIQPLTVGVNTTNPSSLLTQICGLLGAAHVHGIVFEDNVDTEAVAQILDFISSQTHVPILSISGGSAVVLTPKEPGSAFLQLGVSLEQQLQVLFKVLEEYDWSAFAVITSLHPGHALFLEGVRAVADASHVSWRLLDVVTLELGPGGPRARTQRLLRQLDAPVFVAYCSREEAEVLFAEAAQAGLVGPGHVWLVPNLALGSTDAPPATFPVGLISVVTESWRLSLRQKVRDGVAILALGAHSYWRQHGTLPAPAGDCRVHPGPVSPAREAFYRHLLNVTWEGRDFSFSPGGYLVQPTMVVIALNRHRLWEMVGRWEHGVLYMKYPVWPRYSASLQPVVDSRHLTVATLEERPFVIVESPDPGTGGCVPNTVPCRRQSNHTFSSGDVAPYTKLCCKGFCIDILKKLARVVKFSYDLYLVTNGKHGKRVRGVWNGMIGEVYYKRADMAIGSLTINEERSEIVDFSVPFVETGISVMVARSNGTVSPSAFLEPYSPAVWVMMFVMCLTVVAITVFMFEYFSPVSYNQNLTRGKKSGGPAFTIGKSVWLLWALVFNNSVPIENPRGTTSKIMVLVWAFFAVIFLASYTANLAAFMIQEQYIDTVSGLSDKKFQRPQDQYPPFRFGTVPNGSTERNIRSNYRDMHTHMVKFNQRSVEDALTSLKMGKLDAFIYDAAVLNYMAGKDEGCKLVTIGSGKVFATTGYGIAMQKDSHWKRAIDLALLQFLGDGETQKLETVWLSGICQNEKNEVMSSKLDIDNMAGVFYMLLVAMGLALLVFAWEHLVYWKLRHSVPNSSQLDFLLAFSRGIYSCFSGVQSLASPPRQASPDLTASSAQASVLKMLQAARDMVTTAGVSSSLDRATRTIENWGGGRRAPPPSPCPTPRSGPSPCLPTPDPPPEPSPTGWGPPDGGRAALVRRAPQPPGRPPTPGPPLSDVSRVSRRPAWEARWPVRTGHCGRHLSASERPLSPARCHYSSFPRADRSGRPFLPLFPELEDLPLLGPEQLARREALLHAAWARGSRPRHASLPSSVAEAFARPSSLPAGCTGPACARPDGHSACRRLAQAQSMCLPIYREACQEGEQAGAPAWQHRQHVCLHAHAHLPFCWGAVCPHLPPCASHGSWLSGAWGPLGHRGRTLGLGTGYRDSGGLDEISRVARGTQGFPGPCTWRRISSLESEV
Chain of Glutamate NMDA receptor; GRIN1/GRIN2B (Q13224 whole entry, other chains not shown): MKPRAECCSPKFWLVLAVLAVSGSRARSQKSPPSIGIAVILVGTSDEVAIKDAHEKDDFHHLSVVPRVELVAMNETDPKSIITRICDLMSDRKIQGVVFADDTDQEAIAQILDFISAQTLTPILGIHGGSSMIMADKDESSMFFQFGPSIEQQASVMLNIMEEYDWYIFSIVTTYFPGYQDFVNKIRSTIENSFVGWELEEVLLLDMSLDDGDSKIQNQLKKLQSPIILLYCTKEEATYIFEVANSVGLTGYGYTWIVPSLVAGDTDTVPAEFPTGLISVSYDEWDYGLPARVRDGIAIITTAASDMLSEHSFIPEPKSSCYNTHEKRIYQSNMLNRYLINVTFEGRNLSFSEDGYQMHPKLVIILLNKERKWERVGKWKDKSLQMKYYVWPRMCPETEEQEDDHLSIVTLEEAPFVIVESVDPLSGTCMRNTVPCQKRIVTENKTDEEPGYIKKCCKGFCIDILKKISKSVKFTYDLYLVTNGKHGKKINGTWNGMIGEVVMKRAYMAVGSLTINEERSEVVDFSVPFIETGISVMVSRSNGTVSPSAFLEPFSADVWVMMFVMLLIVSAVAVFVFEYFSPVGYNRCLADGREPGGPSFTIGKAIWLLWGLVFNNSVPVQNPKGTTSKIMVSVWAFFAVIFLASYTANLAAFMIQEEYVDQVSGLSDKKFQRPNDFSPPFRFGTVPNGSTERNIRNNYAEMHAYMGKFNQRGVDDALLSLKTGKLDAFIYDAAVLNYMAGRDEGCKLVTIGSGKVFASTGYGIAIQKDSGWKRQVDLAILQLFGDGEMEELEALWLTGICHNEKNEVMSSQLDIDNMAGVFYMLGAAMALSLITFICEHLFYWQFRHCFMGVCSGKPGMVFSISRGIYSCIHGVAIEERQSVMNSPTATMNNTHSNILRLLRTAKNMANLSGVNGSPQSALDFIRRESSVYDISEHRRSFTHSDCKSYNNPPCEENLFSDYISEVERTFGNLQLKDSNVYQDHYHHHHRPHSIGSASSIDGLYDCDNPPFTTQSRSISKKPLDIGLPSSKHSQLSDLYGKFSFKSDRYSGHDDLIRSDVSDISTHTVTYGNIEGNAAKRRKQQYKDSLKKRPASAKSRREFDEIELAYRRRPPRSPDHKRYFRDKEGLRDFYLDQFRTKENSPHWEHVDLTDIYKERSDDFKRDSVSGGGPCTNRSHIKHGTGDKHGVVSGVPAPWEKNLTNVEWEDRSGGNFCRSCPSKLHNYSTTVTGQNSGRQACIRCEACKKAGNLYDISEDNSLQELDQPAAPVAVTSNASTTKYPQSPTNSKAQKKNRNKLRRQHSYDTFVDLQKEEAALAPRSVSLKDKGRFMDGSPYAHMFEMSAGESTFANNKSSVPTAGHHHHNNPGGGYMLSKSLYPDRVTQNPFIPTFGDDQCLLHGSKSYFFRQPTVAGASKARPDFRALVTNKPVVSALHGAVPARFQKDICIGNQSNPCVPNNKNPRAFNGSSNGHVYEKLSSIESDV

## COc1ccc2nc(Cn3nc(C(F)(F)F)cc3Cl)cc(=O)n2c1[C@@H]1C[C@H]1C#N
MDR1 (human)
  efflux ratio: 3.2
[1]
  Emax: 120%
Glutamate receptor 2 [2]
  Emax at 125 µM: 28%
[3]
  pEC50: 7.10
Glutamate receptor 2 [4]
  Emax at 125 µM: 15%

## CCNC(=O)c1c(C)sc2nc(Cn3nc(C(F)(F)F)cc3Cl)cc(=O)n12
[1]
  Emax: 120%
Glutamate receptor 2 [2]
  Emax at 125 µM: 8%
Glutamate receptor 2 [4]
  Emax at 125 µM: 16%

## N#C[C@@H]1C[C@H]1c1c(Cl)ccc2nc(Cn3nc(C(F)(F)F)cc3Cl)cc(=O)n12
[5]
  pEC50: 5.33
MDR1 (human)
  efflux ratio: 1.6
[6]
  Drug uptake: 94.9%
[7]
  pEC50: < 4.82
[8]
  clearance: 10 mL/min/kg
[9]
  logD: 1.8
[10]
  Vd: 7 L/kg
[11]
  Kp uu at 1 h: 0.67
Glutamate receptor 2 [2]
  Emax at 125 µM: 61%
[12]
  Ratio EC50: > 1000
[13]
  Emax at 125 µM: 96%
[14]
  bioavailability: 37%
[15]
  half-life: 8 h
Glutamate receptor 2 [16]
  pEC50: 4.35
[17]
  pEC50: 5.02
[18]
  fCmax: 0.06 µM
[19]
  fraction unbound: 0.056
Glutamate receptor 2 [4]
  Emax at 125 µM: 67%
[20]
  solubility kinetic: 43.5 µM (≈ 18.6 µg/mL)
[21]
  fAUClast: 0.53 µM·h
[22]
  CL free: 132 mL/min/kg
[23]
  Ratio EC50: > 100
[24]
  Ratio: 1.6
[25]
  Ratio EC50: > 1000
Glutamate receptor 2 [26]
  pEC50: 4.31
[27]
  fraction unbound: 0.076

## Cc1sc2nc(Cn3nc(C(F)(F)F)cc3Cl)cc(=O)n2c1[C@@H]1C[C@H]1C#N
[1]
  Emax: 151%
Glutamate receptor 2 [2]
  Emax at 125 µM: 91%
Glutamate receptor 2 [4]
  Emax at 125 µM: 93%

## N#C[C@@H]1C[C@H]1c1c(C(F)(F)F)sc2nc(Cn3nc(C(F)(F)F)cc3Cl)cc(=O)n12
[7]
  pEC50: 5.24
[28]
  TIME: 0.000584 h

## CCNC(=O)c1c(C)ccc2nc(Cn3nc(C(F)(F)F)cc3Cl)cc(=O)n12
[1]
  Emax: 129%
Glutamate receptor 2 [2]
  Emax at 125 µM: 1%
[3]
  pEC50: 5.60
Glutamate receptor 2 [4]
  Emax at 125 µM: -1%

## Cc1ccc2nc(Cn3nc(C(F)(F)F)cc3Cl)cc(=O)n2c1[C@@H]1C[C@H]1C#N
MDR1 (human)
  efflux ratio: 2
[1]
  Emax: 137%
Glutamate receptor 2 [2]
  Emax at 125 µM: 66%
[3]
  pEC50: 7.39
Glutamate receptor 2 [16]
  pEC50: 4.17
Glutamate receptor 2 [4]
  Emax at 125 µM: 63%
Glutamate receptor 2 [26]
  pEC50: 4.51

## N#C[C@@H]1C[C@H]1c1cccc2nc(Cn3nc(C(F)(F)F)cc3Cl)cc(=O)n12
[1]
  Emax: 148%
Glutamate receptor 2 [2]
  Emax at 125 µM: 90%
[3]
  pEC50: 7.62
Glutamate receptor 2 [16]
  pEC50: 6.09
Glutamate receptor 2 [4]
  Emax at 125 µM: 90%
Glutamate receptor 2 [26]
  pEC50: 6.39

## Cc1sc2nc(Cn3nc(C(F)(F)F)cc3Cl)cc(=O)n2c1C1CC1
[1]
  Emax: 116%
Glutamate receptor 2 [2]
  Emax at 125 µM: 51%
[3]
  pEC50: 6.57
Glutamate receptor 2 [4]
  Emax at 125 µM: 32%

## Cc1ccc2nc(Cn3nc(C(F)(F)F)cc3Cl)cc(=O)n2c1-c1cncnc1
[1]
  Emax: 84%
Glutamate receptor 2 [2]
  Emax at 125 µM: 5%
[3]
  pEC50: 5.01
Glutamate receptor 2 [4]
  Emax at 125 µM: 3%

## N#C[C@@H]1C[C@H]1c1c(F)ccc2nc(Cn3nc(C(F)(F)F)cc3Cl)cc(=O)n12
MDR1 (human)
  efflux ratio: 1.5
[1]
  Emax: 151%
Glutamate receptor 2 [2]
  Emax at 125 µM: 67%
[3]
  pEC50: 7.68
Glutamate receptor 2 [16]
  pEC50: 5.51
Glutamate receptor 2 [4]
  Emax at 125 µM: 69%
Glutamate receptor 2 [26]
  pEC50: 6.34

## COc1cc([C@@H]2C[C@H]2C#N)n2c(=O)cc(Cn3nc(C(F)(F)F)cc3Cl)nc2c1
MDR1 (human)
  efflux ratio: 2.2
[1]
  Emax: 140%
Glutamate receptor 2 [2]
  Emax at 125 µM: 51%
[3]
  pEC50: 6.89
Glutamate receptor 2 [16]
  pEC50: 5.17
Glutamate receptor 2 [4]
  Emax at 125 µM: 67%
Glutamate receptor 2 [26]
  pEC50: 5.66

## Cc1ccc2nc(Cn3nc(C(F)(F)F)cc3Cl)cc(=O)n2c1C1CC1
[1]
  Emax: 107%
Glutamate receptor 2 [2]
  Emax at 125 µM: 7%
[3]
  pEC50: 6.55
Glutamate receptor 2 [16]
  pEC50: 5.89
Glutamate receptor 2 [4]
  Emax at 125 µM: 3%
Glutamate receptor 2 [26]
  pEC50: 5.60

## N#C[C@@H]1C[C@H]1c1cc(C(F)(F)F)cc2nc(Cn3nc(C(F)(F)F)cc3Cl)cc(=O)n12
MDR1 (human)
  efflux ratio: 2.1
[1]
  Emax: 142%
Glutamate receptor 2 [2]
  Emax at 125 µM: 27%
Glutamate receptor 2 [16]
  pEC50: 4.57
Glutamate receptor 2 [4]
  Emax at 125 µM: 77%
Glutamate receptor 2 [26]
  pEC50: 4.80

## Cc1sc2nc(Cn3nc(C(F)(F)F)cc3Cl)cc(=O)n2c1-c1cncnc1
[1]
  Emax: 88%
Glutamate receptor 2 [2]
  Emax at 125 µM: 28%
[3]
  pEC50: 5.85
Glutamate receptor 2 [16]
  pEC50: 5.02
Glutamate receptor 2 [4]
  Emax at 125 µM: 9%
Glutamate receptor 2 [26]
  pEC50: 5.92

## Cc1cc([C@@H]2C[C@H]2C#N)n2c(=O)cc(Cn3nc(C(F)(F)F)cc3Cl)nc2c1
MDR1 (human)
  efflux ratio: 2.2
[1]
  Emax: 144%
Glutamate receptor 2 [2]
  Emax at 125 µM: 86%
Glutamate receptor 2 [16]
  pEC50: 5.51
Glutamate receptor 2 [4]
  Emax at 125 µM: 83%
Glutamate receptor 2 [26]
  pEC50: 6.68
